According to patent publication US10351548B2, “2-oxo-1,2-dihydropyridine-3-carboxamide compounds and their use as inhibitors of PDK1” (INTERNATIONAL SOCIETY FOR DRUG DEVELOPMENT S.R.L., priority 2015, dated 2019):
Read-outs that look alike come from different tables or passages of the source.

Assays:
Experiment in all cases: IB35 kinases profiling at 100 nM (ZLYTE)
Format in all cases: biochemical
AKT1 (PKB alpha) = AKT1 (PKB alpha) (Homo sapiens (Human), UniProt P31749); conditions: IB35 100 nM, ATP Km app
From the text: (§1) The results are reported below

AKT2 (PKB beta) = AKT2 (PKB beta) (Homo sapiens (Human), UniProt P31751); conditions: IB35 100 nM, ATP Km app
From the text: as §1

AKT3 (PKB gamma) = AKT3 (PKB gamma) (Homo sapiens (Human), UniProt Q9Y243); conditions: IB35 100 nM, ATP Km app
From the text: as §1

AMPK A1/B1/G1 = AMPK A1/B1/G1 (Homo sapiens (Human), UniProt Q13131); conditions: IB35 100 nM, ATP Km app
From the text: as §1

AURKA (Aurora A) = AURKA (Aurora A) (Homo sapiens (Human), UniProt O14965); conditions: IB35 100 nM, ATP Km app
From the text: as §1

CDC42 BPA (MRCKA) = CDC42 BPA (MRCKA) (Homo sapiens (Human), UniProt Q5VT25); conditions: IB35 100 nM, ATP Km app
From the text: as §1

CDK2/cyclin A = CDK2/cyclin A (Homo sapiens (Human), UniProt P24941); conditions: IB35 100 nM, ATP Km app
From the text: as §1

CHEK1 (CHK1) = CHEK1 (CHK1) (Homo sapiens (Human), UniProt O14757); conditions: IB35 100 nM, ATP Km app
From the text: as §1

CHEK2 (CHK2) = CHEK2 (CHK2) (Homo sapiens (Human), UniProt O96017); conditions: IB35 100 nM, ATP Km app
From the text: as §1

CLK1 = CLK1 (Homo sapiens (Human), UniProt P49759); conditions: IB35 100 nM, ATP Km app
From the text: as §1

FRAP1 (mTOR) = FRAP1 (mTOR) (Homo sapiens (Human), UniProt P42345); conditions: IB35 100 nM, ATP Km app
From the text: as §1

GRK5 = GRK5 (Homo sapiens (Human), UniProt P34947); conditions: IB35 100 nM, ATP Km app
From the text: as §1

GSK3A (GSK3 alpha) = GSK3A (GSK3 alpha) (Homo sapiens (Human), UniProt P49840); conditions: IB35 100 nM, ATP Km app
From the text: as §1

ITK = ITK (Homo sapiens (Human), UniProt Q08881); conditions: IB35 100 nM, ATP Km app
From the text: as §1

JAK1 = JAK1 (Homo sapiens (Human), UniProt P23458); conditions: IB35 100 nM, ATP Km app
From the text: as §1

LCK = LCK (Homo sapiens (Human), UniProt P06239); conditions: IB35 100 nM, ATP Km app
From the text: as §1

MAPK1 (ERK2) = MAPK1 (ERK2) (Homo sapiens (Human), UniProt P28482); conditions: IB35 100 nM, ATP Km app
From the text: as §1

[1] = target: MAPK14 (p38 alpha) Direct (Homo sapiens (Human), UniProt Q16539); conditions: IB35 100 nM, ATP Km app
From the text: as §1

MAPK3 (ERK1) = MAPK3 (ERK1) (Homo sapiens (Human), UniProt P27361); conditions: IB35 100 nM, ATP Km app
From the text: as §1

MAPK9 (JNK2) = MAPK9 (JNK2) (Homo sapiens (Human), UniProt P45984); conditions: IB35 100 nM, ATP 100
From the text: as §1

PRKCA (PKC alpha) = PRKCA (PKC alpha) (Homo sapiens (Human), UniProt P17252); conditions: IB35 100 nM, ATP Km app
From the text: as §1

PRKCE (PKC epsilon) = PRKCE (PKC epsilon) (Homo sapiens (Human), UniProt Q02156); conditions: IB35 100 nM, ATP Km app
From the text: as §1

PRKCZ (PKC zeta) = PRKCZ (PKC zeta) (Homo sapiens (Human), UniProt Q05513); conditions: IB35 100 nM, ATP Km app
From the text: as §1

RPS6KB1 (p70S6K) = RPS6KB1 (p70S6K) (Homo sapiens (Human), UniProt P23443); conditions: IB35 100 nM, ATP Km app
From the text: as §1

Sequence of AMPK A1/B1/G1 (Q13131 whole entry): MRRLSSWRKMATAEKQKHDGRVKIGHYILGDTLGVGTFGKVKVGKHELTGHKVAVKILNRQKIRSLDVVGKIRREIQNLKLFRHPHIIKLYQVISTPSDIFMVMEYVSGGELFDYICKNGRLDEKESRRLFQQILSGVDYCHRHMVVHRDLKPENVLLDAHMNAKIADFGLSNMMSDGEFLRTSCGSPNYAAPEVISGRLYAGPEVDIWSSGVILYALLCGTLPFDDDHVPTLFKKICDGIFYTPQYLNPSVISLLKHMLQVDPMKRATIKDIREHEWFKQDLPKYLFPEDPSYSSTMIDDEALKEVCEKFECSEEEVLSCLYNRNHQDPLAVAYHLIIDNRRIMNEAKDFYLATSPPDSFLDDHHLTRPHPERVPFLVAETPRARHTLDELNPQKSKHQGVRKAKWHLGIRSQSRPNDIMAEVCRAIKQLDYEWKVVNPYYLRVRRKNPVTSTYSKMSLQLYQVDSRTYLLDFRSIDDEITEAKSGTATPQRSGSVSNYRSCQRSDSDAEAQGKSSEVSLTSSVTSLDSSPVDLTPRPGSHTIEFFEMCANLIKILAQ
Sequence of AMPK A1/B1/G1 (Q9Y478 whole entry partner): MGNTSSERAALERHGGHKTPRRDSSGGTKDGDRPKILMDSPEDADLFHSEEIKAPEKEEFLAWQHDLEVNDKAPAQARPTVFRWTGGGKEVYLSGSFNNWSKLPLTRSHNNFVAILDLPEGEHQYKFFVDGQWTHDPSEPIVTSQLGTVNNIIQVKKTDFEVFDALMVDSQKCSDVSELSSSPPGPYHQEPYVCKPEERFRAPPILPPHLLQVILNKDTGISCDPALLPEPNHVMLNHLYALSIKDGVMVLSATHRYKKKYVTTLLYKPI
Sequence of AMPK A1/B1/G1 (P54619 whole entry partner): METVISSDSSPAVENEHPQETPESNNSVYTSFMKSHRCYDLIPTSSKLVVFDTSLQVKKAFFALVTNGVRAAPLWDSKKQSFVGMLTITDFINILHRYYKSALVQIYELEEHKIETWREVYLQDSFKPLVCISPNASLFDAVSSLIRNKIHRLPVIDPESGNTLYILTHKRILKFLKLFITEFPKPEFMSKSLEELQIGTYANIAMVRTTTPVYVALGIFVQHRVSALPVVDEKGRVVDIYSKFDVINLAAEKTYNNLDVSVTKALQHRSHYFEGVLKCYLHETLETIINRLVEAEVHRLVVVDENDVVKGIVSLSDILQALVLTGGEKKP
Sequence of CDC42 BPA (MRCKA) (Q5VT25 whole entry): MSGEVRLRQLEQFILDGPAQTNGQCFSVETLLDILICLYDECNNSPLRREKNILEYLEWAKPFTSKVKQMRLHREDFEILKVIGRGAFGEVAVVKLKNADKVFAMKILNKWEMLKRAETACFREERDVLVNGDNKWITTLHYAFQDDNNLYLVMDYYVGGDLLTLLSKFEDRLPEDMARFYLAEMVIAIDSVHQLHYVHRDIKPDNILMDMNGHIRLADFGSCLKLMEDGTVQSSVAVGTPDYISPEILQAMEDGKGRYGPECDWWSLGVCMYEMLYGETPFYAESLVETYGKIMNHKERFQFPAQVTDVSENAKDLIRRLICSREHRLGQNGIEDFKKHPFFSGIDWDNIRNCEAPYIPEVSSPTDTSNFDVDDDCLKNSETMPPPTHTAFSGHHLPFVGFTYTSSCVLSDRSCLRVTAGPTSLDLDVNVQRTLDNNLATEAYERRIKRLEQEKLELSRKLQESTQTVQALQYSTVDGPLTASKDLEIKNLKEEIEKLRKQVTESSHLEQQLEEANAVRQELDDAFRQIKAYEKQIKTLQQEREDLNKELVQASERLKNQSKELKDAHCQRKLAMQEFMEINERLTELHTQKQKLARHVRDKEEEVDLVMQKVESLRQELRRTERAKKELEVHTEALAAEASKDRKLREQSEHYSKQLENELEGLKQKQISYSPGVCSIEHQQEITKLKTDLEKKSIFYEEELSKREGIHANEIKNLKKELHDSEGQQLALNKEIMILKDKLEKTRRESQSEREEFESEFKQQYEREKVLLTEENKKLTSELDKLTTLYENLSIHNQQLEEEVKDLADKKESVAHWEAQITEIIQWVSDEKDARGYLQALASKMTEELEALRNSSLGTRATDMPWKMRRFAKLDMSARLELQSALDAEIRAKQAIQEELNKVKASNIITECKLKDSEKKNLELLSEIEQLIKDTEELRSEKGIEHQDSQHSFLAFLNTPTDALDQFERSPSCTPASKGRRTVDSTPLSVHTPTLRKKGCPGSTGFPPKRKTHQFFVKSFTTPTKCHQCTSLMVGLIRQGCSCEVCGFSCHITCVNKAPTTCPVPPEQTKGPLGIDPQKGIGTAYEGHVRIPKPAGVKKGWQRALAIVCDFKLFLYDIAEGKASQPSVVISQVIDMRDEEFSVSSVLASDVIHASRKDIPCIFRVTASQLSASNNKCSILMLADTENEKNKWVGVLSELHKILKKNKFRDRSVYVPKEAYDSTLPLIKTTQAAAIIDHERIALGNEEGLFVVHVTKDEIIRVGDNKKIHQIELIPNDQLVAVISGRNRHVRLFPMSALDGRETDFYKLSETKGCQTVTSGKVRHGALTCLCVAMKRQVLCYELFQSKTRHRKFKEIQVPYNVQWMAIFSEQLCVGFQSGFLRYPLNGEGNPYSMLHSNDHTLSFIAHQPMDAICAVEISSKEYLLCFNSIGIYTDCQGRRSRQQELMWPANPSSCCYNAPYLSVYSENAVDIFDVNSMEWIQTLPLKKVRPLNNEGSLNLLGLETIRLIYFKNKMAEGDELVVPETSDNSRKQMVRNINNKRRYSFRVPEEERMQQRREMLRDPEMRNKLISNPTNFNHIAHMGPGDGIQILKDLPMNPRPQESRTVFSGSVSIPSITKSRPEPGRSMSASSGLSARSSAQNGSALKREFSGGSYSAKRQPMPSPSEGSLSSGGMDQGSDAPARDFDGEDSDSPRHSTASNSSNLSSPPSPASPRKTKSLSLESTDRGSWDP
Sequence of AURKA (Aurora A) (O14965 whole entry): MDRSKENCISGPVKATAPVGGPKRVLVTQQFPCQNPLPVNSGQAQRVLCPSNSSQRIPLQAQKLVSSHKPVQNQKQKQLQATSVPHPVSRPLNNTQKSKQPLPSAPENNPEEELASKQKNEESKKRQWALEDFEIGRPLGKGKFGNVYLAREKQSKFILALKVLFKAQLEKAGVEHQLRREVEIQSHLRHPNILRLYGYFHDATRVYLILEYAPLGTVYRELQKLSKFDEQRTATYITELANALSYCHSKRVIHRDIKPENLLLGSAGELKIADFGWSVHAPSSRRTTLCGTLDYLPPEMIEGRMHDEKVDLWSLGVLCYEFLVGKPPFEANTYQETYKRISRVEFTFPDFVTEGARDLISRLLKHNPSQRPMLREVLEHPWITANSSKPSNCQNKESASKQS
Sequence of MAPK14 (p38 alpha) Direct (Q16539 whole entry): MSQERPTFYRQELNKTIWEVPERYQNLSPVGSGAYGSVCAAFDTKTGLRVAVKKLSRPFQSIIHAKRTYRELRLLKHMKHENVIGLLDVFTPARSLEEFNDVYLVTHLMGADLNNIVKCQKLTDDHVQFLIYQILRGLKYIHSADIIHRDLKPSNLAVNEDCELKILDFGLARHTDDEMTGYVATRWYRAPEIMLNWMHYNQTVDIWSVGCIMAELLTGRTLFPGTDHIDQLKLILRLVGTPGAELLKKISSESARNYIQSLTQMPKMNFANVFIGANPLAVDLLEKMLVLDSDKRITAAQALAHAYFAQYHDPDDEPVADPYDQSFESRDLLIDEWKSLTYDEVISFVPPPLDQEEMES
Sequence of LCK (P06239 whole entry, species assumed): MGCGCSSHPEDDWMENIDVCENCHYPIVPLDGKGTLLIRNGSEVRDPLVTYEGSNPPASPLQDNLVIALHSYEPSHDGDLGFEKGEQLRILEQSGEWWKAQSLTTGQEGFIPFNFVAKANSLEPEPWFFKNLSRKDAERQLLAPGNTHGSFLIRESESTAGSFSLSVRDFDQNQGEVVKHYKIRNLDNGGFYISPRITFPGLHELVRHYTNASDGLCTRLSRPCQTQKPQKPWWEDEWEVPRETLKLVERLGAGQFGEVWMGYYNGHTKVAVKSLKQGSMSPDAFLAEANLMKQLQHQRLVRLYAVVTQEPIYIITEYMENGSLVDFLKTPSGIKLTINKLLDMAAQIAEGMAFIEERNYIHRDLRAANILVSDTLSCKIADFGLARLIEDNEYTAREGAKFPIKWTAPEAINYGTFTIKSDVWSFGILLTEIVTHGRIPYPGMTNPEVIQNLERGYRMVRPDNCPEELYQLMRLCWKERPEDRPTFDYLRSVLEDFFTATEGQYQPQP

## O=C(CNC(=O)c1cccn(Cc2ccc(F)c(F)c2)c1=O)Nc1ccc2c(c1)/C(=C/c1cnc[nH]1)C(=O)N2 [IB35, (Z)—N-(2-((3-((1H-imidazol-5-yl)methylene)-2-oxoindolin-5-yl)amino)-2-oxoethyl)-1-(3,4-difluorobenzyl)-2-oxo-1,2-dihydro pyridine-3-carboxamide]
AKT1 (PKB alpha); read-out: % Inhibition 1
  inhibition at 0.1 µM: -6%
AKT1 (PKB alpha); read-out: % Inhibition 2
  inhibition at 0.1 µM: -9%
AKT1 (PKB alpha); read-out: % Inhibition Avg
  inhibition at 0.1 µM: -8%
AKT2 (PKB beta); read-out: % Inhibition 1
  inhibition at 0.1 µM: 0%
AKT2 (PKB beta); read-out: % Inhibition 2
  inhibition at 0.1 µM: -9%
AKT2 (PKB beta); read-out: % Inhibition Avg
  inhibition at 0.1 µM: -4%
AKT3 (PKB gamma); read-out: % Inhibition 1
  inhibition at 0.1 µM: 3%
AKT3 (PKB gamma); read-out: % Inhibition 2
  inhibition at 0.1 µM: 1%
AKT3 (PKB gamma); read-out: % Inhibition Avg
  inhibition at 0.1 µM: 2%
AMPK A1/B1/G1; read-out: % Inhibition 1
  inhibition at 0.1 µM: 8%
AMPK A1/B1/G1; read-out: % Inhibition 2
  inhibition at 0.1 µM: 7%
AMPK A1/B1/G1; read-out: % Inhibition Avg
  inhibition at 0.1 µM: 7%
AURKA (Aurora A); read-out: % Inhibition 1
  inhibition at 0.1 µM: 37%
AURKA (Aurora A); read-out: % Inhibition 2
  inhibition at 0.1 µM: 38%
AURKA (Aurora A); read-out: % Inhibition Avg
  inhibition at 0.1 µM: 38%
CDC42 BPA (MRCKA); read-out: % Inhibition 1
  inhibition at 0.1 µM: -1%
CDC42 BPA (MRCKA); read-out: % Inhibition 2
  inhibition at 0.1 µM: -6%
CDC42 BPA (MRCKA); read-out: % Inhibition Avg
  inhibition at 0.1 µM: -3%
CDK2/cyclin A; read-out: % Inhibition 1
  inhibition at 0.1 µM: -1%
CDK2/cyclin A; read-out: % Inhibition 2
  inhibition at 0.1 µM: 8%
CDK2/cyclin A; read-out: % Inhibition Avg
  inhibition at 0.1 µM: 4%
CHEK1 (CHK1); read-out: % Inhibition 1
  inhibition at 0.1 µM: 10%
CHEK1 (CHK1); read-out: % Inhibition 2
  inhibition at 0.1 µM: 2%
CHEK1 (CHK1); read-out: % Inhibition Avg
  inhibition at 0.1 µM: 6%
CHEK2 (CHK2); read-out: % Inhibition 1
  inhibition at 0.1 µM: 1%
CHEK2 (CHK2); read-out: % Inhibition 2
  inhibition at 0.1 µM: 8%
CHEK2 (CHK2); read-out: % Inhibition Avg
  inhibition at 0.1 µM: 4%
CLK1; read-out: % Inhibition 1
  inhibition at 0.1 µM: 4%
CLK1; read-out: % Inhibition 2
  inhibition at 0.1 µM: -7%
CLK1; read-out: % Inhibition Avg
  inhibition at 0.1 µM: -2%
FRAP1 (mTOR); read-out: % Inhibition 1
  inhibition at 0.1 µM: -10%
FRAP1 (mTOR); read-out: % Inhibition 2
  inhibition at 0.1 µM: -18%
FRAP1 (mTOR); read-out: % Inhibition Avg
  inhibition at 0.1 µM: -14%
GRK5; read-out: % Inhibition 1
  inhibition at 0.1 µM: -7%
GRK5; read-out: % Inhibition 2
  inhibition at 0.1 µM: 0%
GRK5; read-out: % Inhibition Avg
  inhibition at 0.1 µM: -4%
GSK3A (GSK3 alpha); read-out: % Inhibition 1
  inhibition at 0.1 µM: 43%
GSK3A (GSK3 alpha); read-out: % Inhibition 2
  inhibition at 0.1 µM: 43%
GSK3A (GSK3 alpha); read-out: % Inhibition Avg
  inhibition at 0.1 µM: 43%
ITK; read-out: % Inhibition 1
  inhibition at 0.1 µM: 17%
ITK; read-out: % Inhibition 2
  inhibition at 0.1 µM: 12%
ITK; read-out: % Inhibition Avg
  inhibition at 0.1 µM: 14%
JAK1; read-out: % Inhibition 1
  inhibition at 0.1 µM: -10%
JAK1; read-out: % Inhibition 2
  inhibition at 0.1 µM: -6%
JAK1; read-out: % Inhibition Avg
  inhibition at 0.1 µM: -8%
LCK; read-out: % Inhibition 1
  inhibition at 0.1 µM: 10%
LCK; read-out: % Inhibition 2
  inhibition at 0.1 µM: 8%
LCK; read-out: % Inhibition Avg
  inhibition at 0.1 µM: 9%
MAPK1 (ERK2); read-out: % Inhibition 1
  inhibition at 0.1 µM: 5%
MAPK1 (ERK2); read-out: % Inhibition 2
  inhibition at 0.1 µM: 6%
MAPK1 (ERK2); read-out: % Inhibition Avg
  inhibition at 0.1 µM: 6%
[1]; read-out: % Inhibition 1
  inhibition at 0.1 µM: 2%
[1]; read-out: % Inhibition 2
  inhibition at 0.1 µM: 4%
[1]; read-out: % Inhibition Avg
  inhibition at 0.1 µM: 3%
MAPK3 (ERK1); read-out: % Inhibition 1
  inhibition at 0.1 µM: -8%
MAPK3 (ERK1); read-out: % Inhibition 2
  inhibition at 0.1 µM: 1%
MAPK3 (ERK1); read-out: % Inhibition Avg
  inhibition at 0.1 µM: -3%
MAPK9 (JNK2); read-out: % Inhibition 1
  inhibition at 0.1 µM: 3%
MAPK9 (JNK2); read-out: % Inhibition 2
  inhibition at 0.1 µM: -5%
MAPK9 (JNK2); read-out: % Inhibition Avg
  inhibition at 0.1 µM: -1%
PRKCA (PKC alpha); read-out: % Inhibition 1
  inhibition at 0.1 µM: -2%
PRKCA (PKC alpha); read-out: % Inhibition 2
  inhibition at 0.1 µM: 2%
PRKCA (PKC alpha); read-out: % Inhibition Avg
  inhibition at 0.1 µM: 0%
PRKCE (PKC epsilon); read-out: % Inhibition 1
  inhibition at 0.1 µM: 4%
PRKCE (PKC epsilon); read-out: % Inhibition 2
  inhibition at 0.1 µM: 3%
PRKCE (PKC epsilon); read-out: % Inhibition Avg
  inhibition at 0.1 µM: 3%
PRKCZ (PKC zeta); read-out: % Inhibition 1
  inhibition at 0.1 µM: -3%
PRKCZ (PKC zeta); read-out: % Inhibition 2
  inhibition at 0.1 µM: -2%
PRKCZ (PKC zeta); read-out: % Inhibition Avg
  inhibition at 0.1 µM: -3%
RPS6KB1 (p70S6K); read-out: % Inhibition 1
  inhibition at 0.1 µM: -3%
RPS6KB1 (p70S6K); read-out: % Inhibition 2
  inhibition at 0.1 µM: -10%
RPS6KB1 (p70S6K); read-out: % Inhibition Avg
  inhibition at 0.1 µM: -6%
